How the values were obtained:
Duck hepatitis B virus [1] = assay: Antiviral activity against duck Hepatitis B virus infected in duck assessed as inhibition of viral DNA replication in serum at 0.2 mg/kg/day, po treatment initiated at day 10 after infection relative to control; assay type: functional; conditions: 240 h
Mus musculus [2] = assay: Toxicity in KM mouse assessed as peripheral WBC number in blood per liter at 80 mg/kg, po single dose after 48 hrs (reference value: 11.10 x 2.69/L x 10^-9); assay type: organism-based; conditions: in vivo
Mus musculus [3] = assay: Toxicity in KM mouse assessed as peripheral WBC number in blood per liter at 40 mg/kg, po single dose after 48 hrs (reference value: 11.10 x 2.69/L x 10^-9); assay type: organism-based; conditions: in vivo
Mus musculus [4] = assay: Acute toxicity in KM mouse assessed as death at 400 mg/kg, iv suspended in normal saline; assay type: organism-based; conditions: in vivo
Hepatitis B virus [5] = assay: Antiviral activity against Hepatitis B virus in HepG2.2.15 cells assessed as inhibition of intracellular/extracellular viral DNA replication after 3 to 9 days by real-time FQ-PCR analysis; assay type: functional, organism-based; conditions: HepG2 2.2.15
Liver microsome = assay: Drug metabolism in rat liver microsomes assessed as 1-((2R,3S,4R,5R)-5-azido-3-fluoro-4-hydroxy-5-(hydroxymethyl)tetrahydrofuran-2-yl)-4-(2-hydroxycyclopropylamino)pyrimidin-2(1H)-one formation after 2 hrs by LC-MS/MS analysis; assay type: ADME
Duck hepatitis B virus [6] = assay: Antiviral activity against duck Hepatitis B virus infected in duck assessed as inhibition of viral DNA replication in liver at 0.04 mg/kg/day, po treatment initiated at day 10 after infection relative to control; assay type: functional; conditions: 240 h
Mus musculus [7] = assay: Toxicity in KM mouse assessed as peripheral WBC number in blood per liter at 5 mg/kg/day, po 5 doses (reference value: 7.47 +/- 33.77 /L x 10^-9 cells); assay type: organism-based; conditions: in vivo
Rattus norvegicus [8] = assay: In vivo drug metabolism in rat bile sample assessed as 1-((2R,3S,4R,5R)-5-azido-3-fluoro-4-hydroxy-5-(hydroxymethyl)tetrahydrofuran-2-yl)-4-(2-hydroxycyclopropylamino)pyrimidin-2(1H)-one formation by LC-MS/MS analysis; assay type: ADME, organism-based
Duck hepatitis B virus [9] = assay: Antiviral activity against duck Hepatitis B virus infected in po dosed duck assessed as inhibition of viral DNA replication in serum; assay type: functional, organism-based
Hepatitis B virus [10] = assay: Antiviral activity against Hepatitis B virus in HepG2.2.15 cells assessed as inhibition of extracellular viral DNA replication at 5 uM after 6 days by real-time FQ-PCR analysis; assay type: functional; conditions: HepG2 2.2.15, 144 h
Rattus norvegicus [11] = assay: In vivo drug metabolism in rat urine sample assessed as 1-((2R,3S,4R,5R)-5-azido-3-fluoro-4-hydroxy-5-(hydroxymethyl)tetrahydrofuran-2-yl)-4-(2-hydroxycyclopropylamino)pyrimidin-2(1H)-one formation by LC-MS/MS analysis; assay type: ADME, organism-based
Hepatitis B virus [12] = assay: Antiviral activity against Hepatitis B virus in HepG2.2.15 cells assessed as inhibition of intracellular viral DNA replication at 1 uM after 6 days by real-time FQ-PCR analysis; assay type: functional; conditions: HepG2 2.2.15, 144 h
Rattus norvegicus [13] = species on record: Rattus norvegicus; assay: Drug metabolism in rat urine sample assessed as 4-amino-1-((2R,3S,4R,5R)-5-azido-3-fluoro-4-hydroxy-5-(hydroxymethyl)tetrahydrofuran-2-yl)pyrimidin-2(1H)-one formation by NMR spectrum; assay type: ADME, organism-based; conditions: in vivo
Hepatitis B virus [14] = assay: Antiviral activity against Hepatitis B virus in HepG2.2.15 cells assessed as inhibition of intracellular viral DNA replication at 0.2 uM after 3 days by real-time FQ-PCR analysis; assay type: functional; conditions: HepG2 2.2.15, 72 h
Hepatitis B virus [15] = assay: Antiviral activity against Hepatitis B virus in HepG2.2.15 cells assessed as inhibition of extracellular viral DNA replication at 5 uM after 3 days by real-time FQ-PCR analysis; assay type: functional; conditions: HepG2 2.2.15, 72 h
Duck hepatitis B virus [16] = assay: Antiviral activity against duck Hepatitis B virus infected in duck assessed as inhibition of viral DNA replication in liver at 0.04 mg/kg/day, po treatment initiated at day 5 after infection relative to control; assay type: functional; conditions: 120 h
Rattus norvegicus [17] = species on record: Rattus norvegicus; assay: Drug metabolism in rat urine sample assessed as 4-amino-1-((2R,3S,4R,5R)-5-azido-3-fluoro-4-hydroxy-5-(hydroxymethyl)tetrahydrofuran-2-yl)pyrimidin-2(1H)-one formation by LC-MS/MS analysis; assay type: ADME, organism-based; conditions: in vivo
Duck hepatitis B virus [18] = assay: Antiviral activity against duck Hepatitis B virus infected in duck assessed as inhibition of viral DNA replication in liver at 0.2 mg/kg/day, po measured after 3 days of treatment withdrawal; assay type: functional; conditions: 72 h
Duck hepatitis B virus [19] = assay: Antiviral activity against duck Hepatitis B virus infected in duck assessed as inhibition of viral DNA replication in serum at 1 mg/kg/day, po measured after 3 days of treatment withdrawal; assay type: functional; conditions: 72 h
Hepatitis B virus [20] = assay: Antiviral activity against Hepatitis B virus in HepG2.2.15 cells assessed as inhibition of intracellular/extracellular viral DNA replication at 0.2 to 5 uM by real-time FQ-PCR analysis; assay type: functional, organism-based; conditions: HepG2 2.2.15, TDE = time-dependent effect
Duck hepatitis B virus [21] = assay: Antiviral activity against duck Hepatitis B virus infected in duck assessed as inhibition of viral DNA replication in serum at 0.04 mg/kg/day, po treatment initiated at day 5 after infection relative to control; assay type: functional; conditions: 120 h
Rattus norvegicus [22] = assay: In vivo drug metabolism in rat plasma sample assessed as 1-((2R,3S,4R,5R)-5-azido-3-fluoro-4-hydroxy-5-(hydroxymethyl)tetrahydrofuran-2-yl)-4-(2-hydroxycyclopropylamino)pyrimidin-2(1H)-one formation by LC-MS/MS analysis; assay type: ADME, organism-based
Mus musculus [23] = assay: Toxicity in KM mouse assessed as micronucleus frequency in bone marrow polychromatic erythrocyte at 40 mg/kg, po single dose after 48 hrs (reference value: 2.20 +/- 0.84 %); assay type: organism-based; conditions: in vivo
Hepatitis B virus [24] = assay: Antiviral activity against Hepatitis B virus in HepG2.2.15 cells assessed as inhibition of intracellular viral DNA replication at 5 uM after 6 days by real-time FQ-PCR analysis; assay type: functional; conditions: HepG2 2.2.15, 144 h
Hepatitis B virus [25] = assay: Antiviral activity against Hepatitis B virus in HepG2.CW cells assessed as inhibition of viral DNA replication at 1 uM after 9 days by real-time FQ-PCR analysis; assay type: functional; conditions: 216 h
Mus musculus [26] = assay: Acute toxicity in KM mouse assessed as mortality at 3 g/kg, iv suspended in 0.5% CMC/Na solution after 14 days; assay type: organism-based; conditions: in vivo, 3000 mg/kg, 336 h
Mus musculus [27] = assay: Toxicity in KM mouse assessed as peripheral WBC number in blood per liter at 20 mg/kg, po single dose after 48 hrs (reference value: 11.10 x 2.69/L x 10^-9 cells); assay type: organism-based; conditions: in vivo
Mus musculus [28] = assay: Acute toxicity in KM mouse assessed as listlessness at 300 mg/kg, iv suspended in normal saline; assay type: organism-based; conditions: in vivo
Hepatitis B virus [29] = assay: Antiviral activity against Hepatitis B virus in HepG2.2.15 cells assessed as inhibition of extracellular viral DNA replication at 5 uM after 9 days by real-time FQ-PCR analysis; assay type: functional; conditions: HepG2 2.2.15, 216 h
Duck hepatitis B virus [30] = assay: Antiviral activity against duck Hepatitis B virus infected in duck assessed as inhibition of viral DNA replication in serum at 1 mg/kg/day, po treatment initiated at day 10 after infection relative to control; assay type: functional; conditions: 240 h
Mus musculus [31] = assay: Toxicity in KM mouse assessed as peripheral WBC number in blood per liter at 20 mg/kg/day, po 5 doses (reference value: 7.47 +/- 33.77 /L x 10^-9 cells); assay type: organism-based; conditions: in vivo

[N-]=[N+]=N[C@]1(CO)O[C@@H](n2ccc(NC3CC3)nc2=O)[C@@H](F)[C@@H]1O gave an inhibition in vivo at 0.2 mg/kg/day (Duck hepatitis B virus [1]) of 69.5%, an Activity (Mus musculus [2]) of 8.26 ×10⁹ /L and an Activity (Mus musculus [3]) of 9.13 ×10⁹ /L. The Activity (Mus musculus [4]) was “Toxic”, the inhibition (Hepatitis B virus [5]) was “Dose-dependent effect” and the Drug metabolism (Liver microsome) was “metabolite_detected”. For the same compound, the inhibition in vivo at 0.04 mg/kg/day (Duck hepatitis B virus [6]) was 62.8%, the Activity (Mus musculus [7]) was 6.05 ×10⁹ /L and the Drug metabolism (Rattus norvegicus [8]) was “metabolite_detected”. For the same compound, the inhibition (Duck hepatitis B virus [9]) was “Dose-dependent effect”, the inhibition at 5 µM (Hepatitis B virus [10]) was 84% and the Drug metabolism (Rattus norvegicus [11]) was “metabolite_detected”. For the same compound, the inhibition at 1 µM (Hepatitis B virus [12]) was 49.5%, the Drug metabolism (Rattus norvegicus [13]) was “metabolite_detected” and the inhibition at 0.2 µM (Hepatitis B virus [14]) was 20.6%. For the same compound, the inhibition at 5 µM (Hepatitis B virus [15]) was 53%, the inhibition in vivo at 0.04 mg/kg/day (Duck hepatitis B virus [16]) was 34.8% and the Drug metabolism (Rattus norvegicus [17]) was “metabolite_detected”. The inhibition in vivo at 0.2 mg/kg/day (Duck hepatitis B virus [18]) was 63.1%, the inhibition in vivo at 1 mg/kg/day (Duck hepatitis B virus [19]) was 69.9% and the inhibition (Hepatitis B virus [20]) was “tde”. For the same compound, the inhibition in vivo at 0.04 mg/kg/day (Duck hepatitis B virus [21]) was 48.1%, the Drug metabolism (Rattus norvegicus [22]) was “metabolite_detected” and the Activity (Mus musculus [23]) was 1.4%. For the same compound, the inhibition at 5 µM (Hepatitis B virus [24]) was 53%, the inhibition at 1 µM (Hepatitis B virus [25]) was 86.6% and the Activity (Mus musculus [26]) was “Non-toxic”. The Activity (Mus musculus [27]) was 8.84 ×10⁹ /L, the Activity (Mus musculus [28]) was “Toxic” and the inhibition at 5 µM (Hepatitis B virus [29]) was 87.6%. For the same compound, the inhibition in vivo at 1 mg/kg/day (Duck hepatitis B virus [30]) was 74.2% and the Activity (Mus musculus [31]) was 6.53 ×10⁹ /L.
